# Tests used:
# INSR = INSR (Homo sapiens, UniProt P06213); test: Kinase selectivity screen INSR; settings: read-out: % inhibition of INSR
# CAMK2B = CAMK2B (Homo sapiens, UniProt Q13554); test: Kinase selectivity screen CAMK2B; settings: read-out: % inhibition of CAMK2B
# Full-length human MNK2 = target: T1, Full-length human MNK2 (Homo sapiens, UniProt Q9HBH9, T379D); test: MNK2 biochemical IC50 assay (Caliper Mobility Shift Assay)
# T1 construct: GST (N); purchased Carna Biosciences 02-146; host or cells: baculovirus expression system
# T1 sequence (Q9HBH9 whole entry T379D): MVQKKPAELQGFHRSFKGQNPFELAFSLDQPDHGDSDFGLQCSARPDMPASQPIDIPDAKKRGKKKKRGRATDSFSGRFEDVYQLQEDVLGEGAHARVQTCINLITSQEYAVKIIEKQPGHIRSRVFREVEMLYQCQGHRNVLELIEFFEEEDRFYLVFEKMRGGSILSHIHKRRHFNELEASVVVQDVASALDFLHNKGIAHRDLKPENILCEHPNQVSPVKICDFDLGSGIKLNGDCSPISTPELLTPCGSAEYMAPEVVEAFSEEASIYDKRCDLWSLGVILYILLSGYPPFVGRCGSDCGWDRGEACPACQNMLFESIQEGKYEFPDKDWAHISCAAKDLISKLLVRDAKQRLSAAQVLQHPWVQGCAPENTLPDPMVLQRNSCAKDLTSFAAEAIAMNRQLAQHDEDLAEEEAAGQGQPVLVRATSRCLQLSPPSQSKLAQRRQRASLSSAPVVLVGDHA
# TYRO3 = target: T2, TYRO3 (Homo sapiens, UniProt Q06418); test: Kinase selectivity screen TYRO3; settings: read-out: % inhibition of TYRO3
# T2 sequence (Q06418 41-890): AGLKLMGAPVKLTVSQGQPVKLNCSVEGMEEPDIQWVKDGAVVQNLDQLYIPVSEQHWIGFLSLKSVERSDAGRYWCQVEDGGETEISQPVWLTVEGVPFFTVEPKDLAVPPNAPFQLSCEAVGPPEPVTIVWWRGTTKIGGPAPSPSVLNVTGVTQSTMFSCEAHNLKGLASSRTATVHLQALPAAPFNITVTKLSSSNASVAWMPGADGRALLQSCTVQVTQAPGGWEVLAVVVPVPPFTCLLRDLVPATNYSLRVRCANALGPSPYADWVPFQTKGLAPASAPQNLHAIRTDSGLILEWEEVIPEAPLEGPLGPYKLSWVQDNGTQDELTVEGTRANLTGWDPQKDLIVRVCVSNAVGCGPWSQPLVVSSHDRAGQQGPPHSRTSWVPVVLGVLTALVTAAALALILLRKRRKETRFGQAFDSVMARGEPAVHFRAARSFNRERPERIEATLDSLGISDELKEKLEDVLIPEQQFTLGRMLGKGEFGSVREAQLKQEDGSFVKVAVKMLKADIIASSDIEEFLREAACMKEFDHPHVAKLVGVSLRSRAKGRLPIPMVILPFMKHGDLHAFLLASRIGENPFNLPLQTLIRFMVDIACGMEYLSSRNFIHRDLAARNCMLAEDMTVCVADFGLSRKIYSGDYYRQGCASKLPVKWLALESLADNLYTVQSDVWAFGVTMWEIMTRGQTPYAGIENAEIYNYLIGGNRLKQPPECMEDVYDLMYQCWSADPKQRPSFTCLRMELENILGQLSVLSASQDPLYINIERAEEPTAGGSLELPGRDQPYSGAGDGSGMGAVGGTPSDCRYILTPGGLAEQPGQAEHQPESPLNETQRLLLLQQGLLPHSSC
# FER = FER (Homo sapiens, UniProt P16591); test: Kinase selectivity screen FER; settings: read-out: % inhibition of FER
# Sequence of FER (P16591 whole entry, species assumed): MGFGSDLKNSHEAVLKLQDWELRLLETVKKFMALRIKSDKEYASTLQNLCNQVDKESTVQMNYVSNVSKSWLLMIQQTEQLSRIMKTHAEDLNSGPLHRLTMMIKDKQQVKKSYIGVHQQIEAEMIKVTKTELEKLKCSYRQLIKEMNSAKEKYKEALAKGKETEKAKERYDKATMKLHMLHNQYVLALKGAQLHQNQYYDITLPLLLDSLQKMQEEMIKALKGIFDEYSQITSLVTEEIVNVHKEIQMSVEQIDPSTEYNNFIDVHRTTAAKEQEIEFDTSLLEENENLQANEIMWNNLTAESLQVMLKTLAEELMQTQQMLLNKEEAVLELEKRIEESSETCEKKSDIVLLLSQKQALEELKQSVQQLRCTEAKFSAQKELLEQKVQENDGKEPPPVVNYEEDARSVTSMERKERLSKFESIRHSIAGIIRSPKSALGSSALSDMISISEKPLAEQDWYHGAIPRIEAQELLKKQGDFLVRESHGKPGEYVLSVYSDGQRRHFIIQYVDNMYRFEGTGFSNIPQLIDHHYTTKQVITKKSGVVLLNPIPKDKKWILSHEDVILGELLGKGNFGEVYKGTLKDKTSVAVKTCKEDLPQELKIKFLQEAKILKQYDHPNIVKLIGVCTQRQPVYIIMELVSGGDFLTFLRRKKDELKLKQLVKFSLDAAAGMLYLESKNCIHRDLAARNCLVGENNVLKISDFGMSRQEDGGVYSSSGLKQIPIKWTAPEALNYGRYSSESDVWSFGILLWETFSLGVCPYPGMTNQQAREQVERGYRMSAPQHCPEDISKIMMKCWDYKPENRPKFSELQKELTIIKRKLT
# BMX = target: T3, BMX (Homo sapiens, UniProt P51813); test: Kinase selectivity screen BMX; settings: read-out: % inhibition of BMX
# T3 sequence (P51813 1-675): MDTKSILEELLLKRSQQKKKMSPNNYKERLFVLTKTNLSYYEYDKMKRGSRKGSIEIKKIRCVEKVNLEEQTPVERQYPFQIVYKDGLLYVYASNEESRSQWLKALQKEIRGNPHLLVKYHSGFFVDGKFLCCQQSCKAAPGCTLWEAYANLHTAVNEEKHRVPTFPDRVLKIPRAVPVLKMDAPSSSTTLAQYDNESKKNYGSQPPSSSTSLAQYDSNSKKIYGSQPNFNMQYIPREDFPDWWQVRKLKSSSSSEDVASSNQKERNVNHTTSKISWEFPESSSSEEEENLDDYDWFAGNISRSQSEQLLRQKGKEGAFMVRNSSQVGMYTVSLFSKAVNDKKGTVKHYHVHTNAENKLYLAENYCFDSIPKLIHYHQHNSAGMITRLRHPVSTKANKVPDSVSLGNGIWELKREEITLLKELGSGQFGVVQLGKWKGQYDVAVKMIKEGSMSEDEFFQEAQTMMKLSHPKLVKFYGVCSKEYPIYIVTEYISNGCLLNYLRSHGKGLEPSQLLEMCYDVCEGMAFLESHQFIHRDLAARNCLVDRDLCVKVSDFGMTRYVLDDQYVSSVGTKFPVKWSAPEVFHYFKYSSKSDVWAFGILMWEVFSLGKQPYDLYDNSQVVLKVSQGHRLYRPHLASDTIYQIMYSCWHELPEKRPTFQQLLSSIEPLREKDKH
# ROCK1 = ROCK1 (Homo sapiens, UniProt Q13464); test: Kinase selectivity screen ROCK1; settings: read-out: % inhibition of ROCK1
# Sequence of ROCK1 (Q13464 whole entry, species assumed): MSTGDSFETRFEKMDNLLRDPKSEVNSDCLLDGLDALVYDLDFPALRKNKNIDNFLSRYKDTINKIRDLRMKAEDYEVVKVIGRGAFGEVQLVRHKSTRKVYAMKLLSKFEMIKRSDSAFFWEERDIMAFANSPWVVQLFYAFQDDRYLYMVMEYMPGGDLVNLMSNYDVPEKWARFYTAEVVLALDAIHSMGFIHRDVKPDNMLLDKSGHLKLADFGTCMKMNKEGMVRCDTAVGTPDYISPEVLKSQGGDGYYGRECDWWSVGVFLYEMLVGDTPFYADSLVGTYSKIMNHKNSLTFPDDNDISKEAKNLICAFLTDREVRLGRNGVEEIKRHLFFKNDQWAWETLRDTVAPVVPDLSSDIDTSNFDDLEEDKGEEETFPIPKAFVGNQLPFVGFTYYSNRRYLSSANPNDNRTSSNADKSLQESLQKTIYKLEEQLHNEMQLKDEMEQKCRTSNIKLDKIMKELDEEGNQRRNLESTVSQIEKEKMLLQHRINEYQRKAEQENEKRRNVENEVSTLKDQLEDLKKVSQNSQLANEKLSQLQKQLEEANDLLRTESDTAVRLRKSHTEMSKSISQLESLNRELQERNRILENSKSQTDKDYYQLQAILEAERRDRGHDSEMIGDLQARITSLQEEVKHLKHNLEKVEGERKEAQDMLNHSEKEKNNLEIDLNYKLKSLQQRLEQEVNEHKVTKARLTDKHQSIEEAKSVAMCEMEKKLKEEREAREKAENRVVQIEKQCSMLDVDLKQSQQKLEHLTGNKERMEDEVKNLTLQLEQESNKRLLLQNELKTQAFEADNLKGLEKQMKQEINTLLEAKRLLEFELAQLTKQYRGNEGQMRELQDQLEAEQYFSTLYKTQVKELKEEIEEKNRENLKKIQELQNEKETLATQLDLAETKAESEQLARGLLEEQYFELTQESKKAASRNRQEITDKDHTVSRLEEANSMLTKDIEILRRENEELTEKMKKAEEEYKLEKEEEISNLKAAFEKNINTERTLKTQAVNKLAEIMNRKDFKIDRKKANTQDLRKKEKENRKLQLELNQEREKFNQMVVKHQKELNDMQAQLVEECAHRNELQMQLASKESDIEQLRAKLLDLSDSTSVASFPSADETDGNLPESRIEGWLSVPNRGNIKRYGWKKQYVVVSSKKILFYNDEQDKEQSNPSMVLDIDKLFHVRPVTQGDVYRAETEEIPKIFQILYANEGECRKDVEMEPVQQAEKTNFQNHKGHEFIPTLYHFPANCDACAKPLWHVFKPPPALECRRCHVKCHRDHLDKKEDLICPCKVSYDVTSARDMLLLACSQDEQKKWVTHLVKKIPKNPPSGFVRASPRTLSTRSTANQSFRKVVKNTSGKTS
# EEF2K = EEF2K (Homo sapiens, UniProt O00418); test: Kinase selectivity screen EEF2K; settings: read-out: % inhibition of EEF2K
# Sequence of EEF2K (O00418 whole entry): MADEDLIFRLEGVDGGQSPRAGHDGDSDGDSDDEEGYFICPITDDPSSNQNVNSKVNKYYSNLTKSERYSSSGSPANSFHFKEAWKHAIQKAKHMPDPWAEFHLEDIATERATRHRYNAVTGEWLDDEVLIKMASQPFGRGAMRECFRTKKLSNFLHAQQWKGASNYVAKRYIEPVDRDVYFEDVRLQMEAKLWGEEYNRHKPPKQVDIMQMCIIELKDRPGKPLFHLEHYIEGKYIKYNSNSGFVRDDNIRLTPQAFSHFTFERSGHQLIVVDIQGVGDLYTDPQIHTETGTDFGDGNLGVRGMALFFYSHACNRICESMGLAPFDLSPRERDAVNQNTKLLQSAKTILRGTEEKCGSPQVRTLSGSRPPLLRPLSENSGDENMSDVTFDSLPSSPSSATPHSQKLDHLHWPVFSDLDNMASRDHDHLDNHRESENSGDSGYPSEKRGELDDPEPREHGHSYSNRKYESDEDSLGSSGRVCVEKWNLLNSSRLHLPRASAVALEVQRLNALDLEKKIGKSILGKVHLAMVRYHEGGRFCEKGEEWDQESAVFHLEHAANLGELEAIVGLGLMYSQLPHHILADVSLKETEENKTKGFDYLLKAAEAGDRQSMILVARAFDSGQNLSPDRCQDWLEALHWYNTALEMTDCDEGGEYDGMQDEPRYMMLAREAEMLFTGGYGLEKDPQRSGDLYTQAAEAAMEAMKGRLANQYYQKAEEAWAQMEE
# CDK1/CCNB1 = CDK1/CCNB1 (Homo sapiens, UniProt P06493); test: Kinase selectivity screen CDK1/CCNB1; settings: read-out: % inhibition of CDK1/CCNB1
# Sequence of CDK1/CCNB1 (P06493 whole entry, species assumed): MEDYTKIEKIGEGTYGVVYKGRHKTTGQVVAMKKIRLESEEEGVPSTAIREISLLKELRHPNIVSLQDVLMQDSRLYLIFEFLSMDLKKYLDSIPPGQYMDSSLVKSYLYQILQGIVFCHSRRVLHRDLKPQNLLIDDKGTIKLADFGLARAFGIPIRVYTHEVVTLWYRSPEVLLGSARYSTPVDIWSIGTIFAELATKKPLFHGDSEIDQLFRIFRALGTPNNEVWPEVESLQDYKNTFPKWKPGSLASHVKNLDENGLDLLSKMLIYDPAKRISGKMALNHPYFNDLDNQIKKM
# Sequence of CDK1/CCNB1 (P14635 whole entry partner, species assumed): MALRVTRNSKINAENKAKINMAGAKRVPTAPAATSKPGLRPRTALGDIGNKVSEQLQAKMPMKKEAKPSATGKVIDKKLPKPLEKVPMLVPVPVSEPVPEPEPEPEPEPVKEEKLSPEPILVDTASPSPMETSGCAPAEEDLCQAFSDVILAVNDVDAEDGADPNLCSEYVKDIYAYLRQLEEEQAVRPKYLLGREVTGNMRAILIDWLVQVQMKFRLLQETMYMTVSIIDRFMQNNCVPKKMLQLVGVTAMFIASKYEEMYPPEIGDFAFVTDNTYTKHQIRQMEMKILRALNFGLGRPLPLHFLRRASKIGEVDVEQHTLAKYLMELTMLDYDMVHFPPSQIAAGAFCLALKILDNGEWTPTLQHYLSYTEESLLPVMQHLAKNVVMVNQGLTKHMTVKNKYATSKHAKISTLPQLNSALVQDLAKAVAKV
# CDK9/CCNT1 = CDK9/CCNT1 (Homo sapiens, UniProt P50750); test: Kinase selectivity screen CDK9/CCNT1; settings: read-out: % inhibition of CDK9/CCNT1
# Sequence of CAMK2B (Q13554 whole entry, species assumed): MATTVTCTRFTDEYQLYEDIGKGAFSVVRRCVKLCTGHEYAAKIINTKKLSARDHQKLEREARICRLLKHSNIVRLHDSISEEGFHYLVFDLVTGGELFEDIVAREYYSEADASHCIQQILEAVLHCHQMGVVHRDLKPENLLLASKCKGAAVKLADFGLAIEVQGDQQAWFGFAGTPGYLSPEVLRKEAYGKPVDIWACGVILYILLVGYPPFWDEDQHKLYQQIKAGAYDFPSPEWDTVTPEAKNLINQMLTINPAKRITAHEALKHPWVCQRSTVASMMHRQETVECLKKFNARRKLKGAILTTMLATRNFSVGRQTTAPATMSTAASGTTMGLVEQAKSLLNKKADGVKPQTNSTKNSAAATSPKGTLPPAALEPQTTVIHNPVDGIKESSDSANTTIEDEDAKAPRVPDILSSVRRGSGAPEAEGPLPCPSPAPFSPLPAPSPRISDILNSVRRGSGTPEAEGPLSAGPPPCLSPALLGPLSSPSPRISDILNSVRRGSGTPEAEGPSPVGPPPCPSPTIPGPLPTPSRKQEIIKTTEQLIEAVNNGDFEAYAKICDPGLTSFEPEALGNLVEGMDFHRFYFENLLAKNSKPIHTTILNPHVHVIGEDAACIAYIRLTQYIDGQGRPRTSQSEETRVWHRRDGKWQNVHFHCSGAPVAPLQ
Structure (SMILES),inhibition at 1 µM (INSR) [%],inhibition at 1 µM (CAMK2B) [%],IC50 (Full-length human MNK2) [nM],inhibition at 1 µM (TYRO3) [%],inhibition at 1 µM (FER) [%],inhibition at 1 µM (BMX) [%],inhibition at 1 µM (ROCK1) [%],inhibition at 1 µM (EEF2K) [%],inhibition at 1 µM (CDK1/CCNB1) [%],inhibition at 1 µM (CDK9/CCNT1) [%]
"CC(C)Oc1cc(F)ccc1Nc1ncnc2sc(C(=O)NCC3CCNCC3)nc12 [Example 10, 7-(4-fluoro-2-isopropoxy-anilino)-N-(4-piperidylmethyl)thiazolo[5,4-d]pyrimidine-2-carboxamide]",8,2,50.1,0,4,0,0,4,8,2
"CN(C)CCCNC(=O)c1nc2c(N3CCc4cc(F)ccc43)ncnc2s1 [Example 64, N-[3-(dimethylamino)propyl]-7-(5-fluoroindolin-1-yl)thiazolo[5,4-d]pyrimidine-2-carboxamide]",0,57,2,0,0,6,4,0,4,4
"O=C(NCC1CCNCC1)c1nc2c(N3CCc4cc(F)ccc43)ncnc2s1 [Example 58, 7-(5-fluoroindolin-1-yl)-N-(4-piperidylmethyl)thiazolo[5,4-d]pyrimidine-2-carboxamide]",20,17,3.98,20,0,0,0,0,0,11
